# B1: Wnt3a: Wnt3a added to the priming medium (protein, UniProt P56704 19-352, looked up)
# Protein Wnt-3a: SYPIWWSLAVGPQYSSLGSQPILCASIPGLVPKQLRFCRNYVEIMPSVAEGIKIGIQECQHQFRGRRWNCTTVHDSLAIFGPVLDKATRESAFVHAIASAGVAFAVTRSCAEGTAAICGCSSRHQGSPGKGWKWGGCSEDIEFGGMVSREFADARENRPDARSAMNRHNNEAGRQAIASHMHLKCKCHGLSGSCEVKTCWWSQPDFRAIGDFLKDKYDSASEMVVEKHRESRGWVETLRPRYTYFKVPTERDLVYYEASPNFCEPNPETGSFGTRDRTCNVSSHGIDGCDLLCCGRGHNARAERRREKCRCVFHWCCYVSCQECTRVYDVHTCK
# Columns and labels:
# hESCs = assay: Direct comparison BIO versus CP21R7 to differentiate hESCs into CD144+ endothelial cells; type: cell-based, human
# Description: FIG. 6: Direct comparison BIO versus CP21R7 to differentiate hESCs into endothelial cells CD144+. hESCs have been differentiated in monolayer conditions in parallel using different concentrations at Day 1 (0 μM, 0.5 μM, 1 μM, 2 μM) for the BIO or for the COMPOUND 21 (CP21R7) as supplement to the carrier medium N2B27, followed at Day 4 with induction medium VEGF-A 50 ng/ml and Forskolin 5 μM for all the conditions.
# The method of Tatsumi et al employs the BIO inhibitor at different concentrations as supplement to the N2B27. Although Tatsumi et al. describes that the pluripotent stem cells were differentiated to endothelial cells with about 20% efficiency (determined by endothelial cells expressing the surface marker CD144), we were not able to reproduce such results.
# human PSCs = assay: Endothelial induction by GSK3 inhibitors, flow cytometric VE-Cadherin (CD144) expression on day 5; type: cell-based
# Description: (§1) The potential of the most widely used commercial GSK30 inhibitors and CP21R7 to activate β-catenin-mediated TCF/LEF transcription in human PA-1 reporter cells (DeAlmeida et al., 2007) was evaluated. […] Unmodified PA-1 cells are used to measure cellular viability via ATP levels and GLI-luciferase responsive reporter PA-1 cells as counter screen to monitor changes in general transcriptional activity. […] On the outcome of the β-Catenin reporter assay, three GSk3β inhibitors namely BIO, CHIR and CP were exploited for their potential to drive vascular lineage commitment of human PSCs. In addition to the listed inhibitors we include SB216763 (SB) due to its structure similarity to CP (see FIG. 18). Pluripotent stem cells were (i) plated as single-cells on mTeSR1 medium supplemented with Y-27632 a Rho-kinase inhibitor (Watanabe et al., 2007); (ii) incubated in priming medium (N2B27 medium supplemented with a GSK303 inhibitor) and (iii) incubated in induction medium (StemPro SFM 34 medium supplemented with Vascular Endothelial Growth Factor (VEGF; Sumi et al., 2008)) as outlined above under 1 (i) and (ii).
# The Following GSK3 Inhibitors were Used: CHIR99021 GSK3-Inhibitor: Catalogue Number: 361559 from Merck Millipore SB216763 GSK3-Inhibitor: Catalogue Number: 361566 from Merck Millipore BIO GSK3-Inhibitor: Catalogue Number: 3 361550 from Merck Millipore CP21R7: 3-(3-Amino-phenyl)-4-(1-methyl-1H-indol-3-yl)-pyrrole-2,5-dione (also referred to as “compound 21” herein; see e.g. L. Gong et al; Bioorganic & Medicinal Chemistry Letters 20 (2010), 1693-1696).
# Proliferation into vascular bed cells was detected on Day 5. Vascular identity is confirmed by the expression of vascular endothelial-cadherin (VE-Cadherin). The capability to induce vascular bed cells was determined by VE-Cadherin (CD144) expression on day 5 (FIG. 19). […] Remarkably, up to 35% of cells expressed CD144 at an optimal concentration of 1 μM from day five on. […] CHIR, which has a divergent chemical structure than CP induced CD144 expression also in a parabolic curve reaching an optimum at 6 μM. […] Although, SB and CP share the same chemical backbone, divergent moieties may influence the chemical properties, e.g. cellular permeability or solubility. In carrier treated cells no VE-CADHERIN expression was detected (FIG. 19).
# [1] = tested on: β-catenin-mediated TCF/LEF transcription; assay: TCF/LEF reporter assay in human PA-1 reporter cells; type: cell-based; settings: for dose-response activation curve: dose-response assay
# Description: FIG. 19: Compound selection. TCF/LEF reporter assay in human PA-1 reporter cells (DeAlmeida et al., 2007). After the treatment of reporter cells with GSk3 inhibitors at indicated concentrations β-catenin-mediated TCF/LEF transcriptional activity was measured as luciferase activity. The Compound Cp21R7 induced highest luciferase activity at a concentration of 3 μM.
# as §1
# [2] = tested on: GLI-luciferase responsive reporter PA-1 cells; assay: GLI-luciferase responsive reporter PA-1 cells counter screen (general transcriptional activity); type: cell-based, human
# Description: as §1
# Unmodified PA-1 cells = assay: Cellular viability via ATP levels in unmodified PA-1 cells; type: cell-based, human
# Description: as §1
# [3] = tested on: human embryonic stem cell; settings: 5 μM 3 days, then VEGF 2 days; Tatsumi et al.; cited from earlier work
# [4] = tested on: Human Embryonic Stem cells; assay: Quantification of CD144+ stem cell-derived endothelial cells by image based high content analysis
# Description: FIG. 2A: Quantification CD144+ Stem Cell-Derived Endothelial Cells by image based high content analysis (HCA). Human Embryonic Stem cells have been differentiated in monolayer conditions with different small molecules. Upper and middle panel: Day 1 priming medium with different compounds; Day 4 induction medium+VEGF-A 50 ng/ml. Carrier N2B27 alone (upper panel, left); Wnt3a 150 ng/ml added to the priming medium (upper panel, right); SB216763 6 μM added to the priming medium (middle panel, left), CHIR 9902 2 μM added to the priming medium (middle panel, right). Lower panels: Day 1 priming medium with 2 μM Compound 21 (CP21R7); Day 4 induction medium+VEGF-A 50 ng/ml (lower panel, left) and Day 4 induction medium+VEGF-A 50 ng/ml+Forskolin 5 μM (lower panel, right). DAPI (cell nuclei) CD144 (membrane staining).
# FIG. 2B: Quantification graph: Percent CD144+ positive cells.
# (§2) Before the enzymatic dissociation of hPSC colonies using StemPro Accutase (Invitrogen) cells are preincubated for one hour with 10 μM ROCK-Inhibitor Y27632. 35.000 single hPSCs per cm^2 are plated onto growth factor reduced Matrigel (BD bioscience) coated cell culture plates in TeSR2 medium supplemented with 10 μM ROCK-Inhibitor. On day1 attachment medium is exchanged to N2B27 (Gibco) medium supplemented with (a) 2 μM Compound 21 (CP21R7) or (b) 1 μM Compound 21 (CP21R7) and 25 ng/ml BMP4 (R&D Systems). Cells are cultivated for additional 3 days without media change.
# (§3) On day 4 priming medium is replaced with StemPro-34 SFM medium (Invitrogen) supplemented with (a) 50 ng/ml VEGF and 5 μM Forskolin or (b) 200 ng/ml VEGF and 2 μM Forskolin. On day 5 induction medium is withdrawn and cells are used for MACS separation of CD144+ cells.
# pluripotent stem cells [5] = assay: Flow cytometry of CD144+ endothelial cells after monolayer differentiation; type: cell-based, human
# Description: FIG. 3: Flow Cytometry analysis of the pluripotent stem cell-derived CD144+ endothelial cells. Endothelial cells differentiated in monolayer conditions (priming medium 2 μM CP21R7, induction medium VEGF-A 50 ng/ml and Forskolin 5 μM) were analyzed before and after MACS sorting for the CD144+ expression. Before MACS Sorting 32.5% CD144+ endothelial cells and after MACS sorting 96.5% CD144+ endothelial cells.
# as §2, §3
# PSCs [6] = assay: Immunostainings of differentiation markers over time; type: cell-based, human
# Excerpt: Immunostainings of SOX17, OCT4, T-BRACHYURY, PECAM-1 and VE-CADHERIN support the transcriptome data (Quantification shown in FIG. 9). The protein expression of the pan-mesodermal marker T-BRACHYURY confirms an intermediate PS-like cell stage. […] The vast majority of cells reached a T-BRACHYURY peak expression on day three. On day four the expression diminished and disappeared, thereby mimicking its specific embryonic expression pattern (Tam and Loebel, 2007). Loss of pluripotency was monitored by the time-dependent decline of OCT4 expression. […] Induction of endothelial cell identity was determined by the co-expression of platelet-endothelial cell adhesion molecule-1 (PECAM1) and VE-CADHERIN. Endothelial marker expression was detected upon administration of VEGF on day 4 (FIG. 9). […] Our differentiation system enables high throughput derivation of endothelial cells within 5 days through a transient emergence of primitive streak cells.
# PSCs [7] = assay: Genome-wide gene expression analysis during differentiation; type: cell-based, human
# pluripotent stem cells [8] = assay: VSMC induction, flow cytometric CD31/CD140b distribution; type: cell-based, human; settings: induction medium replaced by RPMI medium with 0.5 μM IWR
# Excerpt: Cell types differed by morphology as well as by marker expression. Cobblestone-like cells with tight cell-cell contacts expressed the endothelial-specific marker VE-Cadherin. Flattened and spindle-like shaped cells stained positive for Smooth Muscle Actin (αSMA), indicating a vascular smooth muscle cell (VSMC) identity. In flow cytometric analysis cells separated into a major fraction of CD31^+/CD140^+ cells and minor fraction of CD31^−/CD140b^+ cells (FIG. 10).
# SC-derived ECs = assay: Tube formation assay of SC-derived ECs on Matrigel matrix; type: cell-based, human; settings: data not shown
# Description: In order to define the endothelial phenotype more profoundly, the angiogenic potential, the ability to uptake DiI-acetylated low-density lipoprotein (DiI-ac-LDL) was assessed and the dynamic modulation of the barrier function was monitored. For tube formation assays SC-derived ECs were seeded onto a Matrigel matrix.
molecule,measurement,setting,value
"O=C1Nc2cc(Br)ccc2/C1=C1/Nc2ccccc2/C1=N\O [BIO, (2′Z, 3′E)-6-bromoindirubin-3′-oxime]",maximum expression of the CD144,"hESCs; 0.5 μM at Day 1 in N2B27, induction medium VEGF-A 50 ng/ml and Forskolin 5 μM",5%
same,cytotoxicity,hESCs; already at concentrations of 1 μM,strong cytotoxicity
same,toxicity to the cells,"hESCs; the other concentrations (1 μM, 2 μM)",toxic to the cells
same,toxicity on single cells,human PSCs; data not shown,toxic on single cells
same,dose-response activation curve,[1],steep activation curve
same,GLI-mediated luciferase activity,[2]; data not shown,three-fold increase
same,toxicity,"Unmodified PA-1 cells; concentration of 10 μM, data not shown",highly toxic
same,efficiency determined by endothelial cells expressing the surface marker CD144,[3],about 20%
"Cn1cc(C2=C(c3cccc(N)c3)C(=O)NC2=O)c2ccccc21 [CP21R7, 3-(3-Amino-phenyl)-4-(1-methyl-1H-indol-3-yl)-pyrrole-2,5-dione]",CD144+ cells,"[4]; 2 μM added to the priming medium, day 4 induction medium + VEGF-A 50 ng/ml",40.2%
same,CD144+ cells,"[4]; 2 μM added to the priming medium, induction medium + VEGF-A 50 ng/ml + Forskolin 5 μM",54.6%
same,CD144 expression,"hESCs; dose response 0.5 μM, 1 μM, 2 μM, induction VEGF-A 50 ng/ml and Forskolin 5 μM",up to 35%
same,optimal concentration for CD144 expression,"human PSCs; bell-shaped / parabolic curve, day 5",1 µM
same,cells expressed CD144,"human PSCs; optimal concentration of 1 μM, from day five on",up to 35%
same,maximum increased luciferase activity,[1]; at 3 μM,566 fold
same,concentration of highest luciferase activity,[1]; bell-shaped curve,3 µM
same,dose-response activation curve,[1],steep activation curve
same,general transcriptional activity,[2],minor increases of general transcriptional activity
same,cell proliferation,Unmodified PA-1 cells; at maximum luciferase activity,only a modest gain of cell proliferation
same,"CD144 expression, cells on day six","pluripotent stem cells [5]; priming 1 μM CP with 25 ng/ml BMP4, induction 200 ng/ml VEGF with 2 μM Forskolin",up to 85%
same,CD144+ endothelial cells before MACS sorting,"pluripotent stem cells [5]; priming medium 2 μM CP21R7, induction medium VEGF-A 50 ng/ml and Forskolin 5 μM",32.5%
same,SOX17+ cells,"PSCs [6]; CP21 alone, day three",salt and pepper staining pattern of SOX17^+ cells
same,SOX17+ cells,PSCs [6]; combined application of CP and BMP4,prevented the appearance of endodermal SOX17^+ cells
same,T-BRACHYURY expression,PSCs [6]; treatment with CP and BMP4,induced T-BRACHYURY expression quickly after one day
same,"mesoderm markers MIXL1, T/BRACHYURY, FGF4 and EOMES",PSCs [7]; 24 hours upon combined CP and BMP4 treatment,Upregulation
same,"pluripotency markers NANOG, UIF1 and SOX2","PSCs [7]; 24 hours upon combined CP and BMP4 treatment, data not shown",downregulated
O=C(Nc1cccc2cccnc12)c1ccc(N2C(=O)[C@@H]3[C@H](C2=O)[C@@H]2C=C[C@H]3C2)cc1 [IWR],distribution of CD31+/CD140b− and CD31−/CD140b+ cells,pluripotent stem cells [8],inverted distribution
"Cn1cc(C2=C(c3ccc(Cl)cc3Cl)C(=O)NC2=O)c2ccccc21 [SB216763, 3-(2,4-Dichlorophenyl)-4-(1-methyl-1H-indol-3-yl)-1H-pyrrole-2,5-dione, reference compound]",CD144+ cells,"[4]; 6 μM added to the priming medium, day 4 induction medium + VEGF-A 50 ng/ml",0.5%
same,CD144 expression,"human PSCs; day 5, flow cytometry",no CD144 expression was observed
same,TCF/LEF luciferase expression,[1]; concentration dependent administration,negligible
C[S+]([O-])CCCCN=C=S (centres unmarked) [Sulforaphane],"tube formation, number of nodes, length of tubes",SC-derived ECs,perturbed tube formation and reduced the number of nodes as well as the length of tubes
VEGF,"upregulation of endothelial markers CD34, PECAM1, CDH5 and vWF","PSCs [7]; within the first 24 hours upon VEGF, data not shown",more than 100 fold
B1,CD144+ cells,"[4]; 150 ng/ml added to the priming medium, day 4 induction medium + VEGF-A 50 ng/ml",0.8%
